Molecules are shown by their SMILES.

For this assay, the system named is S. epidermidis. Briefly: Antimicrobial activity on fabric (washed cotton swatches). The note with it: in model detergent (0.6 g/L Na-LAS, 1.2 g/L Soda, 0.9 g/L NaCl), CPC 0.02 g/L or equivalent amount of particle, cotton swatches soaked, rinsed three times. In kind it is cell-based. How it is done: Cotton swatches having dimension 4×4 cm were used in this example. The swatches were soaked in respective compositions as given below for 30 minutes and then washed for 30 minutes in a shaker bath. After that the swatches were rinsed three times with deionized water in a shaker bath. The liquid to cloth ration were maintained at 20 during the washing and rinsing step.

In the case of `CCCCCCCCCCCCCCCC[n+]1ccccc1` [CPC, Cetylpyridinium chloride], the Log reduction was 1.99.

Values taken from patent US20120177712A1, “ANTIMICROBIAL PARTICLE AND A PROCESS FOR PREPARING THE SAME” (priority 2009, published 2012).
